The values that follow come from article PMC12040169 (PLOS Biology, 2025).

A short description of the data set: in vitro. The note with it: human, hela cells, % viability.

SMILES strings stand for the structures.

Take `O=C(COc1ccc(F)cc1)Nc1ccc2ncccc2c1` [CBK159816]: the viability (usually a read-out of living cells in per cent, often relative to untreated cells) at 28.5 h, 10 µM amounted to 85.7%.

In the case of `CC(C)c1ccc(CNC(=O)C2(c3ccccc3)CCCC2)cc1` [CBK161531], the viability at 28.5 h, 10 µM is 96.8%.

As to `Cc1cc2ccccc2n2c(=O)n(CC(=O)N3CCCC3)nc12` [CBK283880], the viability at 28.5 h, 10 µM worked out at 101%.

With `COc1ccc([C@@]23CC[C@H](NC(=O)Nc4cccc(C(F)(F)F)c4F)C[C@@H]2CN(C)C3)cc1OC` [CBK063200A], the viability at 28.5 h, 10 µM turned out to be 92.3%.

Turning to `Cc1cccc(CN(CCCN)C(=O)Nc2ccc(C(C)(C)C)cc2)n1` [CBK033365C], the viability at 28.5 h, 10 µM is 98.3%.

On to `CC1CCc2c(sc(NC(=S)NC(=O)c3ccc4c(c3)OCCO4)c2C(N)=O)C1` (centres unmarked) [CBK266370], for which the viability at 28.5 h, 10 µM was 101%.

With `COc1ccc(C)cc1OCCO` [CBK001975], the viability at 28.5 h, 10 µM amounted to 104%.

Turning to `O=C(NCc1ccc(C(F)(F)F)nc1)OCCc1ccncc1` [CBK200132], the viability at 28.5 h, 10 µM was 93.2%.

Regarding `CSCC(=O)N1C[C@@H]2C[C@H](C1)c1c(-c3cncnc3)ccc(=O)n1C2` [CBK289195], the viability at 28.5 h, 10 µM stood at 79.4%.

With `Cc1cccc(/N=C2\NC(=O)C(Cc3ccc(C)c(Cl)c3)S2)n1` (centres unmarked) [CBK265597], the viability at 28.5 h, 10 µM turned out to be 106%.

On to `Cc1ccc(O)c(Nc2ncnc3ccccc23)c1` [CBK266020C], for which the viability at 28.5 h, 10 µM stood at 93.2%.

With `Cc1c(C(c2ccc3ccccc3c2)c2c(C)n(C)n(-c3ccccc3)c2=O)c(=O)n(-c2ccccc2)n1C` [CBK261692], the viability at 28.5 h, 10 µM is 95.9%.

Consider `COc1ccc(C(=O)N2CCC3(CCN(Cc4cc(=O)[nH]c(=O)[nH]4)C3)C2)cc1OC` (centres unmarked) [CBK132162], for which the viability at 28.5 h, 10 µM turned out to be 108%.

For `CCCC/C=C/c1cncc(N2CCN(c3ccccc3C#N)CC2)n1` [CBK037369], the viability at 28.5 h, 10 µM was 93.6%.

Take `Cc1ccc(Cc2cnc(NC(=O)N3CCC(O)C(F)(F)C3)s2)cc1C` (centres unmarked) [CBK304120]: the viability at 28.5 h, 10 µM was 94.7%.

With `Cc1nnc(-c2cccc(S(=O)(=O)Nc3nnc(C(F)(F)F)s3)c2)o1` [CBK062014], the viability at 28.5 h, 10 µM came out at 99.1%.

Consider `CC1=NN(c2ccc(S(N)(=O)=O)cc2)C(=O)/C1=C/c1ccc(-c2ccc3c(c2)COC3=O)o1` [CBK264678], for which the viability at 28.5 h, 10 µM was 95.6%.

Take `O=C(CC(Nc1ccccc1Cl)C(=O)O)c1ccccc1` (centres unmarked) [CBK265386]: the viability at 28.5 h, 10 µM was 81.1%.

`CCCC(CCC(=O)Nc1ccccc1Cl)C(=O)O` (centres unmarked) [CBK286757]: the viability at 28.5 h, 10 µM stood at 120%.

Regarding `CC(C)OCC(O)C[S+]([O-])Cc1ccccc1` (centres unmarked) [CBK261761], the viability at 28.5 h, 10 µM came to 93.4%.

As to `COc1cc(CN(C)CCc2ccccn2)c([N+](=O)[O-])cc1OC` [CBK261737G], the viability at 28.5 h, 10 µM came out at 88.3%.

In the case of `CC(C)Nc1nc(C#N)nc(NC(C)C)n1` [CBK027421], the viability at 28.5 h, 10 µM is 84.7%.

`O=C(NCc1cccs1)c1ccc2nc[nH]c2c1` [CBK153320]: the viability at 28.5 h, 10 µM stood at 92.1%.

With `O=C(N/N=C/c1ccc(Br)s1)c1cccc([N+](=O)[O-])c1` [CBK261354], the viability at 28.5 h, 10 µM was 117%.

Turning to `Cc1nc(COc2ccc(Cl)cc2)sc1C(=O)N1CCCCC1C(=O)O` (centres unmarked) [CBK304233], the viability at 28.5 h, 10 µM was determined as 87.9%.

As for `CCOC(=O)NC(=O)c1ccccc1` [CBK012359], the viability at 28.5 h, 10 µM worked out at 108%.

Regarding `CC(=O)Nc1ccc(S(=O)(=O)Nc2ccc(C(=O)Nc3ccc(F)cc3)cc2)cc1` [CBK050401], the viability at 28.5 h, 10 µM came out at 111%.

For `O=C(CN1CCOCC1)N1CCN(C(=O)c2ccc(C(F)(F)F)cc2)C1` [CBK051555C], the viability at 28.5 h, 10 µM worked out at 92.1%.

On to `O=C1CCC(N2CCN(c3ncnc4ccccc34)CC2)CCN1` (centres unmarked) [CBK304393], for which the viability at 28.5 h, 10 µM was determined as 96.8%.

On to `O=[N+]([O-])c1cccnc1Sc1ccccc1C1=NCCCN1` [CBK115579C], for which the viability at 28.5 h, 10 µM was 96.2%.

In the case of `CCOc1ccc(-n2c(SC/C=C/c3ccccc3)nnc2-c2cccnc2)cc1` [CBK266222], the viability at 28.5 h, 10 µM was found to be 106%.

Turning to `O=C(NC(=O)N1CCSC1)c1c(Cl)cccc1Cl` [CBK028794], the viability at 28.5 h, 10 µM amounted to 85.3%.
